Laboratory results as given in patent US11707440B2 (priority 2017, dated 2023).

Key:
subjects with TRD = conditions: human, in vivo, other: intranasal
Procedure: FIGS. 53 and 54 present means for blood pressure over time by treatment group in the maintenance phase.
Transient blood pressure increases peaked for the esketamine group at approximately 40 minutes post dose and returned closer to predose levels by 1.5 hours post dose.

[1] = Pharmacokinetics of intranasal esketamine in healthy subjects (Example 9); conditions: healthy subjects; 28, 56 and 84 mg
Procedure: Pharmacokinetic blood samples for measurement of esketamine and noresketamine concentrations in plasma were collected from predose until up to 24 hours after each intranasal esketamine regimen on Day 1 of each period.
Blood samples (4 mL each) for determination of esketamine and noresketamine plasma concentrations were collected into the appropriate collection tube (e.g., Vacutainer®) at timepoints 0.00, 0.12, 0.20, 0.37, 0.53, 0.67, 0.83, 1.00, 1.25, 1.50, 2.00, 3.00, 4.00, 6.00, 9.00, 12.00, 18.00, and 24.00 h. The total amount of blood to be drawn for clinical laboratory tests and PK evaluations is approximately 327 mL.
Plasma samples were analyzed for esketamine and noresketamine concentrations using the validated, specific and sensitive liquid chromatography coupled to tandem mass spectrometry (LC-MS/MS) achiral method of Example 8.
Serial PK blood samples (4 mL each) were collected for a 24-hour period from each subject (Periods 1, 2, and 3). […] Statistical Methods 1.6.4.1. Sample Size
The following key parameters of esketamine and noresketamine in plasma were calculated using noncompartmental methods and actual sampling times: Cmax, tmax, AUClast, AUC∞, t1/2,λ, and λz.

For `CN[C@]1(c2ccccc2Cl)CCCCC1=O` [esketamine, (S)-2-(2-chlorophenyl)-2-(methylamino)cyclohexanone], the “Time of peak of transient blood pressure increases” value (subjects with TRD) was “approximately 40 minutes post dose”, the “Time of return of blood pressure closer to predose levels” value (subjects with TRD) was ≤ 1.5 hours post dose and the “AUC (AUClast and AUC∞) variability, range” value [1] was 25.0% to 30.4. The “Cmax variability (percent coefficient of variation), range across treatment groups” value [1] was 35.7% to 36.7.
